{
  "source": "patent US20160324796A1",
  "about": "“COMPOSITIONS AND THEIR USE TO TREAT COMPLICATIONS OF ANEURYSMAL SUBARACHNOID HEMMORRHAGE” (Edge Therapeutics, Inc., priority 2007, published 2016)",
  "key": {"[1]": {"settings": "male, mongrel, dog, in vivo", "description": "On days 8 and 15, the animals were anesthetized, and angiography, removal of CSF from the cistern magna and collection of plasma, were repeated. Other endpoints included daily blood pressure measurements, behavior assessment, and brain and spinal cord pathology. Animals were euthanized under anesthesia on day 28 or 49, perfused with PBS and then neutral buffered formalin, and the brains subjected to histological analysis.\nThe animals are grouped according to whether the animals died or were euthanized at an unscheduled time (DOS) or underwent scheduled necropsy (SNC)."}, "[2]": {"assay": "Plasma nimodipine after single subcutaneous injection of nimodipine PLGA microparticles", "type": "in vivo, Wistar rats", "settings": "rats, up to day 15", "method": "The rats were divided into separate treatment groups: one control group for treatment with a nimodipine reference solution (control group) and several test groups for treatment with exemplary nimodipine formulations (microparticle test group) according to the described invention. […] The test article was reconstituted with an injection vehicle volume of 0.15 or 0.70 ml, and the entire volume of each reconstituted vial was drawn up immediately and administered individually to each animal. Blood samples were collected from two alternating cohorts of 2 or 3 animals per cohort in the microparticle formulation-injected groups. Collection was immediately before injection and then 1, 12, and 24 hours post dose, and on days 4, 8, 11, and 15. After the last blood sample collection interval, the surviving animals were euthanized via carbon dioxide inhalation. Euthanasia was confirmed by cervical dislocation and anesthesia."}, "[3]": {"settings": "Mice, Male, cited from earlier work"}, "[4]": {"settings": "Rats, Male, cited from earlier work"}, "[5]": {"settings": "cited from earlier work"}, "[6]": {"settings": "cited from earlier work", "remark": "listed apart in the source"}},
  "note": "Read-outs that look alike come from different tables or passages of the source.",
  "data": [
    {"smiles": "COCCOC(=O)C1=C(C)NC(C)=C(C(=O)OC(C)C)C1c1cccc([N+](=O)[O-])c1", "note": "(stereo not shown) [nimodipine, Isopropyl 2-methoxyethyl 1,4-dihydro-2,6-dimethyl-4-(m-nitrophenyl)-3,5-pyridinedicarboxylate]", "values": [
      {"measurement": "Brain discoloration, red, # of animals", "setting": "[1]; 28 d", "result": 0},
      {"measurement": "Brain focus/foci, red, # of animals", "setting": "[1]; 28 d", "result": 0},
      {"measurement": "Brain nodule, # of animals", "setting": "[1]; 28 d", "result": 0},
      {"measurement": "Brain: chromatolysis, central, neuronal; minimal", "setting": "[1]; 28 d", "result": 0},
      {"measurement": "Brain: degeneration, axonal/myelin; mild", "setting": "[1]; 28 d", "result": 0},
      {"measurement": "Brain: degeneration, axonal/myelin; minimal", "setting": "[1]; 28 d", "result": 0},
      {"measurement": "Brain: degeneration; mild", "setting": "[1]; 28 d", "result": 0},
      {"measurement": "Brain: degeneration; minimal", "setting": "[1]; 28 d", "result": 0},
      {"measurement": "Brain: granulation tissue; mild", "setting": "[1]; 28 d", "result": 0},
      {"measurement": "Brain: granulation tissue; minimal", "setting": "[1]; 28 d", "result": 0},
      {"measurement": "Brain: hemorrhage; mild", "setting": "[1]; 28 d", "result": 0},
      {"measurement": "Brain: hemorrhage; minimal", "setting": "[1]; 28 d", "result": 0},
      {"measurement": "Brain: hemorrhage; moderate", "setting": "[1]; 28 d", "result": 0},
      {"measurement": "Brain: infiltration, lymphoid, perivascular; minimal", "setting": "[1]; 28 d", "result": 0},
      {"measurement": "Brain: inflammation, meningeal; minimal", "setting": "[1]; 28 d", "result": 0},
      {"measurement": "Brain: inflammation, subacute/chronic; mild", "setting": "[1]; 28 d", "result": 0},
      {"measurement": "Brain: inflammation, subacute/chronic; minimal", "setting": "[1]; 28 d", "result": 0},
      {"measurement": "Brain: macrophages, pigmented; minimal", "setting": "[1]; 28 d", "result": 0},
      {"measurement": "Brain: mineralization focal; minimal", "setting": "[1]; 28 d", "result": 0},
      {"measurement": "Brain: neovascularization; minimal", "setting": "[1]; 28 d", "result": 0},
      {"measurement": "Brain: within normal limits", "setting": "[1]; 28 d", "result": 0},
      {"measurement": "Spinal Cord, Cervical: degeneration, axonal/myelin; minimal", "setting": "[1]; 28 d", "result": 0},
      {"measurement": "Spinal Cord, Cervical: fibroplasia; minimal", "setting": "[1]; 28 d", "result": 0},
      {"measurement": "Spinal Cord, Cervical: inflammation, granulomatous; moderate", "setting": "[1]; 28 d", "result": 0},
      {"measurement": "Spinal Cord, Cervical: within normal limits", "setting": "[1]; 28 d", "result": 0},
      {"measurement": "Spinal Cord, Lumbar: fibroplasia; minimal", "setting": "[1]; 28 d", "result": 0},
      {"measurement": "Spinal Cord, Lumbar: hemorrhage; minimal", "setting": "[1]; 28 d", "result": 0},
      {"measurement": "Spinal Cord, Lumbar: mineralization; minimal", "setting": "[1]; 28 d", "result": 0},
      {"measurement": "Spinal Cord, Lumbar: within normal limits", "setting": "[1]; 28 d", "result": 0},
      {"measurement": "Spinal Cord, Thoracic: fibroplasia; minimal", "setting": "[1]; 28 d", "result": 0},
      {"measurement": "Spinal Cord, Thoracic: hemorrhage; minimal", "setting": "[1]; 28 d", "result": 0},
      {"measurement": "Spinal Cord, Thoracic: inflammation, granulomatous; minimal", "setting": "[1]; 28 d", "result": 0},
      {"measurement": "Spinal Cord, Thoracic: inflammation, subacute/chronic; minimal", "setting": "[1]; 28 d", "result": 0},
      {"measurement": "Spinal Cord, Thoracic: macrophages, pigmented; minimal", "setting": "[1]; 28 d", "result": 0},
      {"measurement": "Spinal Cord, Thoracic: within normal limits", "setting": "[1]; 28 d", "result": 0},
      {"measurement": "Brain discoloration, red, # of animals", "setting": "[1]; 49 d", "result": 0},
      {"measurement": "Brain focus/foci, red, # of animals", "setting": "[1]; 49 d", "result": 0},
      {"measurement": "Brain nodule, # of animals", "setting": "[1]; 49 d", "result": 0},
      {"measurement": "Brain: chromatolysis, central, neuronal; minimal", "setting": "[1]; 49 d", "result": 0},
      {"measurement": "Brain: degeneration, axonal/myelin; mild", "setting": "[1]; 49 d", "result": 0},
      {"measurement": "Brain: degeneration, axonal/myelin; minimal", "setting": "[1]; 49 d", "result": 0},
      {"measurement": "Brain: degeneration; mild", "setting": "[1]; 49 d", "result": 0},
      {"measurement": "Brain: degeneration; minimal", "setting": "[1]; 49 d", "result": 0},
      {"measurement": "Brain: fibroplasia; minimal", "setting": "[1]; 49 d", "result": 0},
      {"measurement": "Brain: granulation tissue; mild", "setting": "[1]; 49 d", "result": 0},
      {"measurement": "Brain: granulation tissue; minimal", "setting": "[1]; 49 d", "result": 0},
      {"measurement": "Brain: hemorrhage; mild", "setting": "[1]; 49 d", "result": 0},
      {"measurement": "Brain: hemorrhage; minimal", "setting": "[1]; 49 d", "result": 0},
      {"measurement": "Brain: hemorrhage; moderate", "setting": "[1]; 49 d", "result": 0},
      {"measurement": "Brain: infiltration, lymphoid, perivascular; minimal", "setting": "[1]; 49 d", "result": 0},
      {"measurement": "Brain: inflammation, granulomous; mild", "setting": "[1]; 49 d", "result": 0},
      {"measurement": "Brain: inflammation, meningeal; minimal", "setting": "[1]; 49 d", "result": 0},
      {"measurement": "Brain: inflammation, subacute/chronic; mild", "setting": "[1]; 49 d", "result": 0},
      {"measurement": "Brain: macrophages, pigmented; mild", "setting": "[1]; 49 d", "result": 0},
      {"measurement": "Brain: macrophages, pigmented; minimal", "setting": "[1]; 49 d", "result": 0},
      {"measurement": "Brain: mineralization focal; minimal", "setting": "[1]; 49 d", "result": 0},
      {"measurement": "Brain: neovascularization; minimal", "setting": "[1]; 49 d", "result": 0},
      {"measurement": "Brain: within normal limits", "setting": "[1]; 49 d", "result": 0},
      {"measurement": "Spinal Cord, Cervical: degeneration, axonal/myelin; minimal", "setting": "[1]; 49 d", "result": 0},
      {"measurement": "Spinal Cord, Cervical: fibroplasia; minimal", "setting": "[1]; 49 d", "result": 0},
      {"measurement": "Spinal Cord, Cervical: fibroplasia; moderate", "setting": "[1]; 49 d", "result": 0},
      {"measurement": "Spinal Cord, Cervical: hemorrhage; minimal", "setting": "[1]; 49 d", "result": 0},
      {"measurement": "Spinal Cord, Cervical: inflammation, granulomatous; minimal", "setting": "[1]; 49 d", "result": 0},
      {"measurement": "Spinal Cord, Cervical: inflammation, granulomatous; moderate", "setting": "[1]; 49 d", "result": 0},
      {"measurement": "Spinal Cord, Cervical: inflammation, subacute/chronic; mild", "setting": "[1]; 49 d", "result": 0},
      {"measurement": "Spinal Cord, Cervical: macrophages, pigmented; minimal", "setting": "[1]; 49 d", "result": 0},
      {"measurement": "Spinal Cord, Lumbar: fibroplasia; minimal", "setting": "[1]; 49 d", "result": 0},
      {"measurement": "Spinal Cord, Lumbar: hemorrhage; minimal", "setting": "[1]; 49 d", "result": 0},
      {"measurement": "Spinal Cord, Lumbar: mineralization; minimal", "setting": "[1]; 49 d", "result": 0},
      {"measurement": "Spinal Cord, Lumbar: within normal limits", "setting": "[1]; 49 d", "result": 0},
      {"measurement": "Spinal Cord, Thoracic: fibroplasia; minimal", "setting": "[1]; 49 d", "result": 0},
      {"measurement": "Spinal Cord, Thoracic: hemorrhage; minimal", "setting": "[1]; 49 d", "result": 0},
      {"measurement": "Spinal Cord, Thoracic: inflammation, granulomatous; minimal", "setting": "[1]; 49 d", "result": 0},
      {"measurement": "Spinal Cord, Thoracic: inflammation, subacute/chronic; minimal", "setting": "[1]; 49 d", "result": 0},
      {"measurement": "Spinal Cord, Thoracic: macrophages, pigmented; minimal", "setting": "[1]; 49 d", "result": 0},
      {"measurement": "Spinal Cord, Thoracic: within normal limits", "setting": "[1]; 49 d", "result": 0},
      {"measurement": "plasma nimodipine concentrations over time", "setting": "[2]", "result": "sustained release of nimodipine over time"},
      {"measurement": "LD50", "setting": "[3]; Intravenous", "result": 33, "unit": "mg/kg"},
      {"measurement": "LD50", "setting": "[3]; Oral", "result": 3562, "unit": "mg/kg"},
      {"measurement": "LD50", "setting": "[4]; Intravenous", "result": 16, "unit": "mg/kg"},
      {"measurement": "LD50", "setting": "[4]; Oral", "result": 6599, "unit": "mg/kg"},
      {"measurement": "LD50", "setting": "[5]; Rabbits, Female, Intravenous", "result": 2.5, "unit": "mg/kg"},
      {"measurement": "LD50", "setting": "[5]; female, rabbit, in vivo, po", "result": 5000, "unit": "mg/kg"},
      {"measurement": "LD50", "setting": "[6]; Dogs, Male and female, Intravenous", "result": 4, "unit": "mg/kg"},
      {"measurement": "LD50", "setting": "[6]; both, dog, in vivo, po", "result": "1000 to 2000", "unit": "mg/kg"}
    ]}
  ]
}
